Measurements published in paper PMC6522510 (Nature Communications, 2019).

Key:
Set-up in all cases: species or system AML cell lines (8); Primary HTS, single concentration about 10 uM, Cell Titer Glo viability; log10 luminescence, per cent inhibition relative to cycloheximide control
Conditions in all cases: 72 h, relative to cycloheximide control, log10 luminescence; inhibitor
M07e = tested on: M07e
CMK = tested on: CMK
MOLM-13 = tested on: MOLM-13
MV4-11 = tested on: MV4-11
CMS = tested on: CMS
CHRF288-11 = tested on: CHRF288-11
ML-2 = tested on: ML-2
U937 = tested on: U937

Compound	M07e %inh (M07e) [%]	CMK %inh (CMK) [%]	MOLM-13 %inh (MOLM-13) [%]	MV4-11 %inh (MV4-11) [%]	CMS %inh (CMS) [%]	CHRF288-11 %inh (CHRF288-11) [%]	ML-2 %inh (ML-2) [%]	U937 %inh (U937) [%]
CC(=O)Nc1cccc(-n2c(=O)n(C3CC3)c(=O)c3c(Nc4ccc(I)cc4F)n(C)c(=O)c(C)c32)c1 [SJ000574293-1, TRAMETINIB | GSK-1120212B | JTP-74057 | 1120212 | GSK-1120212 | GSK1120212 | TRAMETINIB (GSK1120212)]	16.11	4.055	39.84	40.11	21.59	30.11	27.14	11.49
N#CC[C@H](C1CCCC1)n1cc(-c2ncnc3[nH]ccc23)cn1 [SJ000574296-1, RUXOLITINIB | INCB-18424 | INCB-018424 | NCB018424 | INC-424 | INCB-424 | RUXOLITINIB | INCB-18424 | INCB-018424 | NCB018424 | INC-424 | INCB-424 | | RUXOLITINIB (INCB018424) | S-RUXOLITINIB (INCB018424)]	44.64	85.02	27.41	11.92	86.42	79.68	4.441	33.85
CCC(=O)O[C@]1(C(=O)CCl)[C@@H](C)C[C@H]2[C@@H]3C[C@H](F)C4=CC(=O)C=C[C@]4(C)[C@@]3(F)[C@@H](O)C[C@@]21C [SJ000574311-1, HALOBETASOL PROPIONATE]	1.449	-5.875	-1.713	1.288	-1.131	2.781	0.4055	2.458
COC(=O)C1=C(C)N(CCc2cc(OC)c(OC)c(OC)c2)C(=O)N[C@H]1c1ccccc1 [SJ000579768-1]	-5.412	-0.2715	-2.193	3.524	-1.498	-6.017	-0.773	-0.6782
CC1(OC(=O)C2CCCC2)C(=O)C=C2C=C(c3ccsc3)N(CCCCO)C=C2C1=O (centres unmarked) [SJ000579780-1]	-0.9393	-4.183	6.828	-0.2702	0.1638	-0.7955	-1.026	-0.2771
CC(=O)[C@@H]1[C@@H](C)N(Cc2ccccc2)C(=O)N[C@H]1c1cccc(C(F)(F)F)c1 [SJ000579797-1]	-1.436	-5.628	-2.815	0.5112	1.099	8.301	0.485	0.542
COC(=O)CCC(=O)OC1(C)C(=O)C=C2C=C(C3CC3)N(Cc3ccc(OC)cc3)C=C2C1=O (centres unmarked) [SJ000579817-1]	4.577	0.09613	6.903	0.1893	1.001	-0.5157	0.04263	-0.6979
COC(=O)CCCC1=CC2=CC(=O)C(C)(OC(=O)c3cccs3)C(=O)C2=CN1C1CCCCC1 (centres unmarked) [SJ000579837-1]	-0.3619	6.006	2.949	0.3457	-0.4009	2.103	1.343	1.516
COc1ccc(C2=CC3=C(Br)C(=O)C(C)(O)C(=O)C3=CO2)cc1 (centres unmarked) [SJ000580186-1]	0.3527	-1.841	3.615	1.031	-0.7753	-2.02	-0.5513	1.575
CC1(OC(=O)C2CCCC2)C(=O)C=C2C=C(c3ccsc3)OC=C2C1=O (centres unmarked) [SJ000580213-1]	-2.766	0.9758	3.751	0.3204	3.861	1.734	-0.1394	2.696
CC1(OC(=O)c2cccs2)C(=O)C=C2C=C3CCCN3C=C2C1=O (centres unmarked) [SJ000580493-1]	2.009	4.862	-0.7413	2.091	2.99	4.124	-0.6831	1.415
COc1ccc(O)c(C(=O)c2ccc(C(=O)O[C@@H]3CCCNC[C@H]3NC(=O)c3ccncc3)cc2)c1F [SJ000580951-1]	15.86	131.3	81.23	68.34	13.47	109.9	61.64	74.66
Cn1cc(C2=C(c3cn(CCCCN)c4ccccc34)C(=O)NC2=O)c2ccccc21 [SJ000580952-1]	-0.5312	13.68	4.295	8.937	1.981	13.76	4.061	11.79
CC(=O)N[C@@H](Cc1ccc(OP(=O)(O)O)cc1)C(=O)N[C@H]1CCC(=O)N2CCC[C@@H](C(=O)NC3CCc4ccccc43)N2C1=O (some centres unmarked) [SJ000580953-1]	-2.209	1.012	0.9252	-1.841	-2.328	3.338	0.02578	-1.364
O=C1NC(=NCCc2ccc(F)cc2)S/C1=C\c1ccc2ncccc2c1 [SJ000580954-1]	-2.647	4.249	4.197	-0.3593	-3.568	-1.783	0.5359	1.346
CC(C)c1[nH]nc2c1N=C(c1ccccc1Cl)c1cc([N+](=O)[O-])ccc1N2 [SJ000580955-1]	0.02064	2.501	0.5223	1.567	-2.316	1.018	-0.2118	-1.286
O=C1NC(=NCCc2cccc(Cl)c2)S/C1=C\c1ccc2ncccc2c1 [SJ000580956-1]	0.9407	32.59	9.124	2.972	5.008	2.333	10.56	20
C[C@@H](Cn1ncnn1)Nc1ncc2cc(Oc3ccc(F)cc3F)c(=O)n(C)c2n1 [SJ000580957-1]	0.2176	6.727	1.122	-1.139	0.2461	0.5625	0.7836	0.5561
Cn1c(=O)c(Cc2ccccc2F)cc2cnc(NC3CCOCC3)nc21 [SJ000580958-1]	0.7689	5.964	5.832	6.415	0.1397	0.1529	0.5571	8.088
O=C1NC(=Nc2ccccc2)S/C1=C\c1ccc2ncccc2c1 [SJ000580960-1]	-2.396	5.474	1.819	2.663	-0.1285	-1.26	0.4587	2.19
O=c1c(Oc2ccc(F)cc2F)cc2cnc(NC3CCOCC3)nc2n1C1CCS(=O)(=O)CC1 [SJ000580961-1]	-1.798	4.971	0.9477	0.879	-0.4155	-4.195	0.6064	4.388
O=c1c(Oc2ccc(F)cc2F)cc2cnc(NC3CCOCC3)nc2n1CCCO [SJ000580962-1]	-0.6973	6.717	0.8881	3.176	2.142	3.259	1.08	2.637
